Source: patent EP0119446A2, “Growth promoting aminophenylethyl amine derivatives” (BAYER AG, priority 1983, dated 1984)

Tested on: Ratten, weiblich
Experiment: Feeding trial in rats (feed intake, weight gain, feed conversion)
Format: in vivo, Ratten (SPF Wistar)
Conditions: n = 6
Excerpt: (§1) Die Tiere wurden 2 Tage an die neuen Haltungsbedingungen adaptiert, wobei generell das Versuchsfutter ohne Wirkstoffzusatz verabreicht wurde. Am dritten Versuchstag wurden die Tiere randomisiert und anschließend die Versuchsgruppen so gebildet, daß sowohl die Mittelwerte als auch die Streuungen in den Körpergewichten zwischen den Gruppen gleich waren. Nach einer 5-tägigen Vorperiode wurde eine 8-tägige Hauptperiode durchgeführt, in denen Futteraufnahme, Zuwachs und Futterverwertung bestimmt wurden.
Es wurden folgende Behandlungen geprüft: • b 1) Negativkontrolle (n = 12) • b 2) 25 ppm (Wirkstoff Beispiel 12) (n = 6)
as §1, with “7-tägige” for “8-tägige”
Es wurden folgende Behandlungen geprüft: • b 1) Negativkontrolle (n = 12) • b 2) 0,2 ppm (Wirkstoff Beispiel 12) (n = 6) • b 3) 10 ppm (Wirkstoff Beispiel 12) (n = 6)
Es wurden folgende Behandlungen geprüft: • b 1) Negativkontrolle (n = 12) • b 2) 25 ppm (Wirkstoff Beispiel 2) (n = 6)
as §1, with “7-tägigen” for “5-tägigen”, “7-tägige” for “8-tägige”
Es wurden folgende Behandlungen geprüft: • b 1) Negativkontrolle (n = 24) • b 2) 25 ppm (Wirkstoff Beispiel 2) (n = 6)
Es wurden folgende Behandlungen geprüft: • b 1) Negativkontrolle (n = 12) • b 2) 0,2 ppm (Wirkstoff Beispiel 1) (n = 6) • b 3) 10 ppm (Wirkstoff Beispiel 1) (n = 6)

[1] = 0,2 ppm in feed, whole test period 12 Tage (5-day pre-period + 7-day main period), negative control 200
[2] = 0,2 ppm in feed, whole test period 12 Tage, negative control 4,88
[3] = 0,2 ppm in feed, whole test period 12 Tage, negative control 41,0
[4] = 10 ppm in feed, whole test period 12 Tage (5-day pre-period + 7-day main period), negative control 200
[5] = 10 ppm in feed, whole test period 12 Tage, negative control 4,88
[6] = 10 ppm in feed, whole test period 12 Tage, negative control 41,0
[7] = 25 ppm in feed, whole test period 13 Tage (5-day pre-period + 8-day main period), negative control 174
[8] = 25 ppm in feed, whole test period 13 Tage, negative control 5,06
[9] = 25 ppm in feed, whole test period 13 Tage, negative control 35,4

Compound | Futter-aufnahme [1] | Futter-verwer-tung [2] | Zuwachs [3] | Futter-aufnahme [4] | Futter-verwer-tung [5] | Zuwachs [6] | Futter-aufnahme [7] | Futter-verwer-tung [8] | Zuwachs [9] | Futter-aufnahme (25 ppm in feed, whole test period 14 Tage (7-day pre-period + 7-day main period), negative control 225) | Futter-verwer-tung (25 ppm in feed, whole test period 14 Tage, negative control 5,30) | Zuwachs (25 ppm in feed, whole test period 14 Tage, negative control 40,6)
Cc1cc(NCC(O)c2cc(Cl)c(N)c(Cl)c2)ccc1Oc1ccc(SC(F)(F)F)cc1 (stereo not drawn) [Bsp. 1] | 204 g | 4,25 g/g | 47,9 g | 206 g | 4,46 g/g | 46,2 g | 184 g | 4,23 g/g | 43,9 g |  |  | 
Cc1cc(NCC(O)c2cc(Cl)c(N)c(Cl)c2)ccc1Oc1ccc(S(=O)(=O)C(F)(F)F)cc1 (stereo not drawn) [Bsp. 2] |  |  |  |  |  |  | 180 g | 4,85 g/g | 37,5 g | 233 g | 4,88 g/g | 47,8 g
CC(C)C(C)[Si](C)(C)OC(CN(C(C)(C)C)[Si](C)(C)C(C)C(C)C)c1cc(Cl)c(N)c(Cl)c1 (stereo not drawn) [Bsp. 12] | 217 g | 4,13 g/g | 52,5 g | 204 g | 4,03 g/g | 50,7 g | 193 g | 3,77 g/g | 51,9 g |  |  | 
